According to ChEMBL document CHEMBL3734744, “Synthesis, 3D pharmacophore, QSAR and docking studies of novel quinazoline derivatives with nitric oxide release moiety as preferential COX-2 inhibitors” (Medchemcomm, 2015):

Tests used:
[1] = system: Rattus norvegicus; experiment: Antiinflammatory activity in Sprague-Dawley rat assessed as inhibition of carrageenan-induced paw edema at 80 mg/kg, po administered 30 mins prior to carrageenan challenge measured at 3 hrs by plethysmometer relative to meloxicam; format: functional
[2] = species: Ovis aries; experiment: Selectivity index, ratio of IC50 for ovine COX1 to IC50 for ovine COX2
[3] = system: Rattus norvegicus; experiment: Antiinflammatory activity in Sprague-Dawley rat assessed as inhibition of carrageenan-induced paw edema at 80 mg/kg, po administered 30 mins prior to carrageenan challenge measured at 2 hrs by plethysmometer; format: functional
[4] = system: Rattus norvegicus; experiment: Antiinflammatory activity in Sprague-Dawley rat assessed as inhibition of carrageenan-induced paw edema at 80 mg/kg, po administered 30 mins prior to carrageenan challenge measured at 1 hr by plethysmometer; format: functional
[5] = molecular target: T1, Prostaglandin G/H synthase 2 (Ovis aries, UniProt P79208); experiment: Inhibition of ovine COX2 after 5 mins by enzyme immuno assay
T1 sequence (P79208 whole entry): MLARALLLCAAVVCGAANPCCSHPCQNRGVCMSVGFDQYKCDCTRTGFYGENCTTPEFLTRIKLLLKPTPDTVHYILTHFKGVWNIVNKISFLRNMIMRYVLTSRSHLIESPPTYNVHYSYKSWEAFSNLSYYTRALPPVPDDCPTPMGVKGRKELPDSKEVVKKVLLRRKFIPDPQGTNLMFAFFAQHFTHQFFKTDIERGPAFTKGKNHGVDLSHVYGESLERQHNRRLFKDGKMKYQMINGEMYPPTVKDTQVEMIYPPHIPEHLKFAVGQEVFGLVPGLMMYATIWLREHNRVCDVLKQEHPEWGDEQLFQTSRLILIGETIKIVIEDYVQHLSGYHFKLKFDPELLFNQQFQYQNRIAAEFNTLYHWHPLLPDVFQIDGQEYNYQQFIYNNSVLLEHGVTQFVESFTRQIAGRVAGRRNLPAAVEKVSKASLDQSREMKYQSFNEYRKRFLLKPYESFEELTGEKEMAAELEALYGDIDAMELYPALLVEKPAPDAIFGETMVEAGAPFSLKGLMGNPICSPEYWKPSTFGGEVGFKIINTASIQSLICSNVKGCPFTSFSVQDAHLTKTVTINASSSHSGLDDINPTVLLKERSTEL

[6] = system: Rattus norvegicus; experiment: Antiinflammatory activity in Sprague-Dawley rat assessed as inhibition of carrageenan-induced paw edema at 80 mg/kg, po administered 30 mins prior to carrageenan challenge measured at 3 hrs by plethysmometer; format: functional
[7] = molecular target: T2, Prostaglandin G/H synthase 1 (Ovis aries, UniProt P05979); experiment: Inhibition of ovine COX1 after 5 mins by enzyme immuno assay
T2 sequence (P05979 whole entry): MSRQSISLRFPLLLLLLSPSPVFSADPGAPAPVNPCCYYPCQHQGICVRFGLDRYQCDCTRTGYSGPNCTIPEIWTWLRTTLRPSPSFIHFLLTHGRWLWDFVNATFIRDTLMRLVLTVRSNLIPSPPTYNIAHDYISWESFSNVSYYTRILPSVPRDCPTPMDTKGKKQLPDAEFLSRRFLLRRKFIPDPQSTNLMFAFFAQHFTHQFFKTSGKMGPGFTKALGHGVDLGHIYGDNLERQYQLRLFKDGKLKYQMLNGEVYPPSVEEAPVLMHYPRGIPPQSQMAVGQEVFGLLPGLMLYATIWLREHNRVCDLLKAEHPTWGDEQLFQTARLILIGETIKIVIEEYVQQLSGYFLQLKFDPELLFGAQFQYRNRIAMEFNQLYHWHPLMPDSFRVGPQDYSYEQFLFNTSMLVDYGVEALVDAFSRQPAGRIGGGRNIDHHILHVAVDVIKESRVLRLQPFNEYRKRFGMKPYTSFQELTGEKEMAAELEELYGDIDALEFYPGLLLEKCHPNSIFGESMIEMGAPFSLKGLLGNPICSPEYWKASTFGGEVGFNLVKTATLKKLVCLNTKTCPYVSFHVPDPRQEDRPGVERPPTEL

[8] = system: Serum; experiment: Induction of nitric oxide release in rat serum by Griess assay; format: functional
[9] = system: Rattus norvegicus; experiment: Gastrointestinal toxicity in Wistar albino rat assessed as ulceration at 10 mg/kg/day, po administered for 3 days measured after 2 hrs post last dose by haematoxylin/eosin staining-based microscopic analysis; format: organism-based; settings: in vivo
[10] = system: Rattus norvegicus; experiment: Gastrointestinal toxicity in Wistar albino rat assessed as ulcer index at 10 mg/kg/day, po administered for 3 days measured after 2 hrs post last dose; format: organism-based; settings: in vivo
[11] = system: Rattus norvegicus; experiment: Gastrointestinal toxicity in Wistar albino rat assessed as intact mucosa at 10 mg/kg/day, po administered for 3 days measured after 2 hrs post last dose by haematoxylin/eosin staining-based microscopic analysis; format: organism-based; settings: in vivo
[12] = system: Rattus norvegicus; experiment: Gastrointestinal toxicity in Wistar albino rat assessed as mild erosion at 10 mg/kg/day, po administered for 3 days measured after 2 hrs post last dose by haematoxylin/eosin staining-based microscopic analysis; format: organism-based; settings: in vivo
[13] = system: Rattus norvegicus; experiment: Gastrointestinal toxicity in Wistar albino rat assessed as irregular mucosa at 5 mg/kg/day, po administered for 3 days measured after 2 hrs post last dose by haematoxylin/eosin staining-based microscopic analysis; format: organism-based; settings: in vivo
[14] = system: Rattus norvegicus; experiment: Gastrointestinal toxicity in Wistar albino rat assessed as ulcer index at 5 mg/kg/day, po administered for 3 days measured after 2 hrs post last dose; format: organism-based; settings: in vivo
[15] = system: Rattus norvegicus; experiment: Gastrointestinal toxicity in Wistar albino rat assessed as ulceration at 5 mg/kg/day, po administered for 3 days measured after 2 hrs post last dose by haematoxylin/eosin staining-based microscopic analysis; format: organism-based; settings: in vivo

Ratio IC50 [2] | IC50 [5] [µM] | IC50 [7] [µM] | Structure (SMILES) | inhibition in vivo at 80 mg/kg [1] [%] | inhibition in vivo at 80 mg/kg [3] [%] | inhibition in vivo at 80 mg/kg [4] [%] | inhibition in vivo at 80 mg/kg [6] [%] | Activity [8] [µmol/L] | Activity [9] | UI [10] | Activity [11] | Activity [12] | Activity [13] | UI [14] | Activity [15]
5.67 | 5.75 | 32.7 | Cc1ccc(S(=O)(=O)Nn2c(C)nc3ccccc3c2=O)cc1 | 83.9 | 24.2 | 3.2 | 51.9 |  |  |  |  |  |  |  | 
6.72 | 3.59 | 24.1 | CC(=O)Nc1ccc(S(=O)(=O)Nn2c(CO[N+](=O)[O-])nc3ccccc3c2=O)cc1 | > 100 | 40.4 | 15.2 | 64.8 | 7.9 | Toxic | 1.3 |  |  |  |  | 
5.28 | 6.53 | 34.5 | Cc1nc2ccccc2c(=O)n1NC(=O)NC(C)(C)C | 82.5 | 29.8 | 10.4 | 51 |  |  |  |  |  |  |  | 
5.16 | 4.41 | 22.8 | CC(=O)Nc1ccc(S(=O)(=O)Nn2c(C)nc3ccccc3c2=O)cc1 | 95.7 | 37.4 | 20.8 | 59.2 |  |  |  |  |  |  |  | 
3.5 | 8.58 | 30.1 | Cc1nc2ccccc2c(=O)n1NS(=O)(=O)c1ccccc1 | 77.2 | 22.2 | 5.6 | 47.8 |  |  |  |  |  |  |  | 
5.13 | 3.67 | 18.9 | Cc1nc2ccccc2c(=O)n1NC(=S)Nc1ccccc1 | 100 | 42.9 | 14.4 | 61.9 |  |  |  |  |  |  |  | 
2.41 | 42.1 | 98.6 | O=c1c2ccccc2nc(CO[N+](=O)[O-])n1NS(=O)(=O)c1ccccc1 | 55 | 11.6 | 2.4 | 34 | 16.73 | Non-toxic | 0.5 |  |  |  |  | 
4.74 | 5 | 23.8 | Cc1nc2ccccc2c(=O)n1NC(=O)NC1CCCCC1 | 88.6 | 41.9 | 12 | 54.8 |  |  |  |  |  |  |  | 
 |  |  | Cc1cnc(NC(=O)C2=C(O)c3ccccc3S(=O)(=O)N2C)s1 [MELOXICAM] |  | 43.4 | 20.8 | 61.9 |  | Toxic | 0.6 |  |  |  |  | 
4.11 | 5.93 | 24.4 | O=C(Nc1ccccc1)Nn1c(CO[N+](=O)[O-])nc2ccccc2c1=O | 82.9 | 25.8 | 6.4 | 51.3 | 22.8 | Non-toxic | 0.6 |  |  |  |  | 
5.03 | 6.86 | 34.6 | O=C(NC1CCCCC1)Nn1c(CO[N+](=O)[O-])nc2ccccc2c1=O | 80.6 | 18.7 | 8 | 49.9 | 28.53 |  | 0.4 | Non-toxic |  |  |  | 
3.57 | 12.5 | 44.6 | CC(C)(C)NC(=O)Nn1c(CO[N+](=O)[O-])nc2ccccc2c1=O | 70.6 | 14.1 | 6.4 | 43.7 | 10.76 |  | 0.9 |  | Toxic |  |  | 
 |  |  | COc1ccc2c(c1)c(CC(=O)O)c(C)n2C(=O)c1ccc(Cl)cc1 [INDOMETHACIN] |  |  |  |  |  |  |  |  |  | Toxic | 1.8 | Toxic
3.32 | 11.7 | 38.8 | Cc1ccc(S(=O)(=O)Nn2c(CO[N+](=O)[O-])nc3ccccc3c2=O)cc1 | 71.6 | 15.7 | 6.4 | 44.3 | 10.4 | Toxic | 1 |  |  |  |  | 
